From patent publication US11324786B2, “Lactic acid bacteria and use thereof” (priority 2017, dated 2022)

Tests used:
Assay type in all cases: in vivo, mouse
colitis animal model = assay: TNBS colitis animal model: weight change, colon length, toxicity; settings: TNBS colitis mice; oral once daily for 3 days; lactic acid bacteria 1×10^9 CFU, sulfasalazine 50 mg/kg
Protocol: One group was used as a normal group, and the other group was treated with 2,4,6-trinitrobenzenesulfonic acid (TNBS) to induce colitis. Specifically, after test animals were anesthetized with ether, 0.1 ml of TNBS solution mixed with 50% ethanol was injected into the large intestine through the anus using a 1 ml syringe with a round tip, and the test animals were raised up vertically for 30 seconds to cause inflammation. Meanwhile, 0.1 ml of physiological saline was orally administered to the normal group. […] The next day when the lactic acid bacteria administration was finished, the test animal was sacrificed, and a portion of the colon from a cecum to a site immediately before the anus was removed and then a length thereof was measured. Then, various following indicators were identified based on the length. On the other hand, 1% dextrose solution as a suspension of lactic acid bacteria instead of the novel lactic acid bacteria was administered orally to the test animals in the normal group. Further, a test animal of a positive control group was orally treated with a colitis treatment drug sulfasalazine in an amount of 50 mg/kg instead of the novel lactic acid bacteria.

myeloperoxidase (MPO) = assay: Colitis animal model: myeloperoxidase activity in colon tissue; settings: TNBS colitis mice, oral once daily for 3 days, lactic acid bacteria 1×10^9 CFU, sulfasalazine 50 mg/kg
Protocol: 6 C57BL/6 mice (male, 21 to 23 g, 6 weeks old) formed one group which was adapted to a test room for 1 week. One group was used as a normal group, and the other group was treated with 2,4,6-trinitrobenzenesulfonic acid (TNBS) to induce colitis. Specifically, after test animals were anesthetized with ether, 0.1 ml of TNBS solution mixed with 50% ethanol was injected into the large intestine through the anus using a 1 ml syringe with a round tip, and the test animals were raised up vertically for 30 seconds to cause inflammation. Meanwhile, 0.1 ml of physiological saline was orally administered to the normal group. […] The next day when the lactic acid bacteria administration was finished, the test animal was sacrificed, and a portion of the colon from a cecum to a site immediately before the anus was removed and then a length thereof was measured. […]
200 μl of 10 mM potassium phosphate buffer (pH 7.0) containing 0.5% hexadecyl trimethyl ammonium bromide was added to 100 mg of colon tissue, and was homogenized. […] 50 μl of the supernatant was added to 0.95 ml of a reaction solution (containing 1.6 mM tetramethyl benzidine and 0.1 mM H2O2) and the absorbance was measured over time at 650 nm while reacting at 37° C. The activity of myeloperoxidase (MPO) was calculated while 1 μmol/ml of H2O2 generated as a reactant was defined as one unit.

TNF-α = assay: Colitis animal model: TNF-α in colon; settings: colon tissue, TNBS colitis mice; oral once daily for 3 days; lactic acid bacteria 1×10^9 CFU
Protocol: (§1) 6 C57BL/6 mice (male, 21 to 23 g, 6 weeks old) formed one group which was adapted to a test room for 1 week. One group was used as a normal group, and the other group was treated with 2,4,6-trinitrobenzenesulfonic acid (TNBS) to induce colitis. Specifically, after test animals were anesthetized with ether, 0.1 ml of TNBS solution mixed with 50% ethanol was injected into the large intestine through the anus using a 1 ml syringe with a round tip, and the test animals were raised up vertically for 30 seconds to cause inflammation. Meanwhile, 0.1 ml of physiological saline was orally administered to the normal group. After the administration, the novel lactic acid bacterium Lactobacillus mucosae NK41, Bifidobacterium longum NK46 or a 1:1 mixture thereof was suspended in physiological saline which in turn was orally administered thereto in an amount of 1×10^9 CFU once daily for 3 days from a next day. The next day when the lactic acid bacteria administration was finished, the test animal was sacrificed, and a portion of the colon from a cecum to a site immediately before the anus was removed and then a length thereof was measured. […]
(§2) Western blotting methods were used to measure inflammatory response indicator materials, such as p-p65, p65, COX-2 and IL-17. […] Further, the expression level of cytokines thereof was measured using an ELISA kit.

IL-17 = assay: Colitis animal model: IL-17 in colon; settings: colon tissue, TNBS colitis mice; oral once daily for 3 days; lactic acid bacteria 1×10^9 CFU, sulfasalazine 50 mg/kg
Protocol: as §1, §2

COX-2 = assay: Colitis animal model: COX-2 in colon; settings: colon tissue, TNBS colitis mice; oral once daily for 3 days; lactic acid bacteria 1×10^9 CFU, sulfasalazine 50 mg/kg
Protocol: as §1, §2

**Q.** O=C(O)c1cc(/N=N/c2ccc(S(=O)(=O)Nc3ccccn3)cc2)ccc1O [Positive group, sulfasalazine] was tested. Which Colon length (colitis animal model) did it give?
**A.** The Colon length was 4.7 cm.

**Q.** And the Weight change (colitis animal model)?
**A.** Its Weight change is -0.54 g.

**Q.** And the MPO activity (myeloperoxidase (MPO))?
**A.** The MPO activity was 0.98 μU/mg.

**Q.** And the TNF-α (TNF-α)?
**A.** Its TNF-α is 75 pg/mg.

**Q.** And the IL-17 (IL-17)?
**A.** Its IL-17 is 41 pg/mg.

**Q.** What about the COX-2 activity (COX-2) of the same compound?
**A.** The COX-2 activity was 0.41.
